Reference: ChEMBL document CHEMBL3585345 (ACS Med Chem Lett, 2015)
Active and inactive are the calls of the source. The rule behind the calls is not given here.

Experiments:
[1] = tested on: HCT-116; assay: Cytotoxicity against human HCT116 cells assessed as inhibition of cell proliferation by BrdU incorporation assay; format: functional
[2] = target: T1, Aurora kinase A (Mus musculus, UniProt P97477); assay: Inhibition of recombinant mouse aurora kinase A expressed in insect Sf9 cells using biotin-GLRRASLG as substrate in presence of [gamma-33P]ATP
T1 sequence (P97477 whole entry): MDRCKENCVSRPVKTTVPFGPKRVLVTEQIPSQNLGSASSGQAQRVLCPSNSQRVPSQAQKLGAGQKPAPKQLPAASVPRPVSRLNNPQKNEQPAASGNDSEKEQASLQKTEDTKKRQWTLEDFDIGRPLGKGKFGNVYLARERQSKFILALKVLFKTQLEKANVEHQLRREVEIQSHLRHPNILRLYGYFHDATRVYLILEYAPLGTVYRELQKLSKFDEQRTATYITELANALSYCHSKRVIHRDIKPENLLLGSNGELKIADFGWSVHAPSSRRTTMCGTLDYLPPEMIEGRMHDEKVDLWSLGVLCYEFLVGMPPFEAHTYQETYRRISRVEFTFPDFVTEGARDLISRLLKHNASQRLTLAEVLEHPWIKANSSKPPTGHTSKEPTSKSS

[3] = target: Aurora kinase B (Homo sapiens, UniProt Q96GD4); assay: Inhibition of aurora kinase B in human HCT116 cells assessed as inhibition of histone H3 phosphorylation by immunofluorescence analysis; format: cell-based, HCT-116
[4] = AUC (0 to 8 hrs) in nude mouse brain at 30 mg/kg, po; format: ADME, organism-based; set-up: dose 30 mg/kg, time < 8 hr, route oral
[5] = Cmax in nude mouse brain at 30 mg/kg, po; format: ADME, organism-based; set-up: dose 30 mg/kg, route oral
[6] = tested on: Plasma; assay: AUC (0 to 8 hrs) in nude mouse plasma at 30 mg/kg, po; format: ADME, organism-based; set-up: dose 30 mg/kg, time < 8 hr, route oral; settings: in vivo
[7] = in vivo; settings: nude, mouse, brain/plasma, po, 30 mg/kg
[8] = Aqueous solubility of the compound; format: physicochemical; settings: buffer
[9] = tested on: Caco-2; assay: Permeability across apical to basolateral side in human Caco2 cells; format: ADME, cell-based
[10] = tested on: Caco-2; assay: Permeability across basolateral to apical side in human Caco2 cells; format: ADME, cell-based
[11] = target: T2, Gamma-aminobutyric acid receptor subunit alpha-1 (Homo sapiens, UniProt P14867); assay: Binding affinity to GABAA alpha-1 benzodiazepine binding site (unknown origin)
T2 sequence (P14867 whole entry): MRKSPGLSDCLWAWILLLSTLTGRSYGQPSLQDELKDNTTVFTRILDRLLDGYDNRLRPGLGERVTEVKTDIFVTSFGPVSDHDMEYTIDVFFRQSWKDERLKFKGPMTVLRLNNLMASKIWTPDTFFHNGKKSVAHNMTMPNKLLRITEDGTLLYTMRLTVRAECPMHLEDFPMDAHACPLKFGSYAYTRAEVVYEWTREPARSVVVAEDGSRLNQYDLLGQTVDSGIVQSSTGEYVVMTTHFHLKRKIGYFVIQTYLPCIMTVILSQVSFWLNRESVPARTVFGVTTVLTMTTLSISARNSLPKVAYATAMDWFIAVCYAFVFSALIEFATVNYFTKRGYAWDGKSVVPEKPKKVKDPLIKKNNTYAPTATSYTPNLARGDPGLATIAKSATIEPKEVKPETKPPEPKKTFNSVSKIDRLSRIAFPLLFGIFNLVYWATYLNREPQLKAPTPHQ

[12] = Cmax in po dosed Sprague-Dawley rat; format: ADME, organism-based; set-up: route oral; settings: in vivo
[13] = tested on: Rattus norvegicus; assay: Toxicity in Sprague-Dawley rat assessed as GABAA related effect at maximum tolerated dose, po administered for 7 days; format: organism-based; settings: in vivo, 168 h
[14] = tested on: Rattus norvegicus; assay: AUC (0 to 24 hrs) in po dosed Sprague-Dawley rat; format: ADME, organism-based; set-up: time < 24 hr, route oral; settings: in vivo
[15] = tested on: Rattus norvegicus; assay: In vivo binding affinity to GABAA receptor in po dosed Sprague-Dawley rat; format: ADME, organism-based
[16] = target: T3, Aurora kinase A (Homo sapiens, UniProt O14965); assay: Inhibition of aurora kinase A autophosphorylation at T288 in human HCT116 cells by immunofluorescence analysis; format: cell-based, HCT-116
T3 sequence (O14965 whole entry): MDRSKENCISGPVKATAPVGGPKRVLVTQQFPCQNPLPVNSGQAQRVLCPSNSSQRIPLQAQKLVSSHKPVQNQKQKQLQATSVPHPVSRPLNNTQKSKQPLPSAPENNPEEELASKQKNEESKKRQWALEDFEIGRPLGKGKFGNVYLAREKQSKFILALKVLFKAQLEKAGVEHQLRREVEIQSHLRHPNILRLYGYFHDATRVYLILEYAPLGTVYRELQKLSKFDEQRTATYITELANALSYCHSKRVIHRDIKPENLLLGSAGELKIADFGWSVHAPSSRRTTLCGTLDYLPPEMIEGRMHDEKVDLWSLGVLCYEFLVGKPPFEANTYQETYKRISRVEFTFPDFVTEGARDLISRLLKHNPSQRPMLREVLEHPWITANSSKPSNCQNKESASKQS

[17] = tested on: Calu-6; assay: Antitumor activity against human Calu6 cells xenografted in mouse assessed as tumor growth inhibition at 20 mg/kg, po bid administered for 21 days; format: functional, organism-based
[18] = tested on: Calu-6; assay: Antitumor activity against human Calu6 cells xenografted in mouse assessed as tumor growth inhibition at 30 mg/kg, po bid administered for 21 days; format: functional, organism-based
[19] = Protein binding in plasma (unknown origin); format: ADME, cell-free; settings: read-out: PPB
[20] = Volume of distribution at steady state in Sprague-Dawley rat at 1 mg/kg, iv; format: ADME, organism-based; settings: in vivo, read-out: Vdss
[21] = target: T1, Aurora kinase A; assay: Competitive inhibition of recombinant mouse aurora kinase A expressed in insect Sf9 cells in presence of ATP
[22] = Terminal half life in Sprague-Dawley rat at 1 mg/kg, iv; format: ADME, organism-based; settings: in vivo, read-out: beta t1/2 (converted)
[23] = tested on: Rattus norvegicus; assay: (§1) Oral bioavailability in Sprague-Dawley rat at 10 mg/kg; format: ADME, organism-based; settings: in vivo
[24] = tested on: Rattus norvegicus; assay: Toxicity in Sprague-Dawley rat assessed as mucositis at maximum tolerated dose, po administered for 7 days; format: organism-based; settings: in vivo, 168 h
[25] = tested on: Rattus norvegicus; assay: Toxicity in Sprague-Dawley rat assessed as GABAA related effect administered as iv infusion measured within 5 mins; format: organism-based; settings: in vivo
[26] = Substrate activity at P-gp (unknown origin) transfected in MDCK cells; format: ADME, cell-based; settings: human
[27] = Inhibition of human CYP450; format: ADME
[28] = tested on: Rattus norvegicus; assay: Toxicity in Sprague-Dawley rat assessed as myelosuppression at maximum tolerated dose, po administered for 7 days; format: organism-based; settings: in vivo, 168 h
[29] = tested on: Rattus norvegicus; assay: Toxicity in Sprague-Dawley rat assessed as reversible effect on central nervous system at maximum tolerated dose, po administered for 7 days; format: organism-based; settings: in vivo, 168 h
[30] = Clearance in Sprague-Dawley rat at 1 mg/kg, iv; format: ADME, organism-based; settings: in vivo
[31] = Inhibition of CYP450 (unknown origin) up to 100 uM; format: ADME; settings: human
[32] = as §1; format: ADME, organism-based; settings: Sprague-Dawley, in vivo

Chain of Aurora kinase B (Q96GD4 whole entry): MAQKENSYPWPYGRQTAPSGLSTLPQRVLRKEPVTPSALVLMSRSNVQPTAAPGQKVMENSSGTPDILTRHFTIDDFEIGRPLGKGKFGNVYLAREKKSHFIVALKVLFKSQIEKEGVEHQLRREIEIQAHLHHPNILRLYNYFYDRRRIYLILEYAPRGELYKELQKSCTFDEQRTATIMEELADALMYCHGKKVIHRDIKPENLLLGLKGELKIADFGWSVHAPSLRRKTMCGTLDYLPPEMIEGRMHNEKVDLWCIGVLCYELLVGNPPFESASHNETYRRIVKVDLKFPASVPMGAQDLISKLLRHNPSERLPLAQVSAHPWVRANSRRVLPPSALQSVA

O=C(O)c1ccc(Nc2ncc3c(n2)-c2ccc(Cl)cc2C(c2ccccc2F)=NC3)cc1
GI50 [1]: 0.95 µM
IC50 [2]: 0.033 µM
IC50 [3]: > 10 µM

O=C([O-])c1ccc(Nc2ncc3c(n2)-c2ccc(Cl)cc2C(c2c(F)cccc2F)=NC3)cc1.[Na+]
AUC(0-t) at 8 h [4]: 12500 ng·h/mL
Cmax [5]: 2600 ng/mL

COc1cccc(F)c1C1=NCc2cnc(Nc3ccc(C(=O)[O-])cc3)nc2-c2ccc(Cl)cc21.[Na+]
AUC [6]: 54300 ng·h/mL
AUC(0-t) at 8 h [4]: 3500 ng·h/mL
Cmax [5]: 930 ng/mL
Kp [7]: 0.06

COc1cc(Nc2ncc3c(n2)-c2ccc(Cl)cc2C(c2c(F)cccc2OC)=NC3)ccc1C(=O)[O-].[Na+]
AUC(0-t) at 8 h [4]: 2000 ng·h/mL
Cmax [5]: 420 ng/mL
Kp [7]: 0.03

O=C([O-])c1ccc(Nc2ncc3c(n2)-c2ccc(Cl)cc2C(c2ccccc2F)=NC3)cc1.[Na+]
solubility [8]: > 10000 µg/mL
permeability [9]: 58 ×10⁻⁶ cm/s
permeability [10]: 64 ×10⁻⁶ cm/s

COc1cccc(F)c1C1=NCc2cnc(Nc3ccc(C(=O)O)cc3)nc2-c2ccc(Cl)cc21
IC50 [11]: 0.15 µM
GI50 [1]: 0.13 µM
Cmax [12]: 46000 ng/mL
Activity [13]: Non-toxic
IC50 [2]: 0.01 µM
AUC [14]: 244000 ng·h/mL
Activity [15]: Non-toxic
IC50 [3]: 2.5 µM

Nc1ncc2c(n1)-c1ccc(Cl)cc1C(c1ccccc1F)=NC2
GI50 [1]: 11 µM
IC50 [16]: 6 µM
IC50 [2]: 1.7 µM
IC50 [3]: > 10 µM

COc1cc(Nc2ncc3c(n2)-c2ccc(Cl)cc2C(c2c(F)cccc2OC)=NC3)ccc1C(=O)O
TGI [17]: Active

O=C(O)c1ccc(Nc2ncc3c(n2)-c2ccc(Cl)cc2C(c2c(F)cccc2F)=NC3)cc1
TGI [18]: Active

COc1cc(Nc2ncc3c(n2)-c2ccc(Cl)cc2C(c2c(F)cccc2OC)=NC3)ccc1C(=O)O [ALISERTIB]
fraction unbound [19]: < 0.03
Vd [20]: 2.21 L/kg
IC50 [11]: 0.49 µM
Ki [21]: 0.0003 µM
half-life [22]: 7 h
GI50 [1]: 0.03 µM
Cmax [12]: 48000 ng/mL
Activity [13]: Non-toxic
permeability [9]: 62 ×10⁻⁶ cm/s
F [23]: 124%
Activity [24]: Toxic
IC50 [2]: 0.001 µM
AUC [14]: 201000 ng·h/mL
Activity [25]: Toxic
Activity [15]: Non-toxic
Activity [26]: Not Active
IC50 [27]: > 100 µM
permeability [10]: 47 ×10⁻⁶ cm/s
Activity [28]: Toxic

O=C(O)c1ccc(Nc2ncc3c(n2)-c2ccc(Cl)cc2C(c2c(F)cccc2F)=NC3)cc1 [MLN-8054]
Activity [29]: Toxic
fraction unbound [19]: < 0.02
Vd [20]: 1.48 L/kg
IC50 [11]: 0.33 µM
Ki [21]: 0.007 µM
clearance [30]: 20.3 mL/min/kg
half-life [22]: 4.2 h
inhibition (INH) [31]: Not Active
Cmax [12]: 5200 ng/mL
permeability [9]: 54 ×10⁻⁶ cm/s
bioavailability [32]: 100%
Activity [24]: Toxic
IC50 [2]: 0.031 µM
AUC [14]: 13800 ng·h/mL
Activity [26]: Not Active
permeability [10]: 79 ×10⁻⁶ cm/s
Activity [28]: Toxic
